This note sets out measurements from patent US7834023B2 (Portola Pharmaceuticals, Inc., priority 2006, dated 2010).

The target in one test is T1, P2Y12 receptor (Homo sapiens, UniProt Q9H244).
T1 construct: endogenous in cells; host or cells: human platelets (outdated from blood banks or fresh), apyrase-washed, whole
Put plainly: platelet ADP receptor binding assay (ARB): inhibition of [3H]2-MeS-ADP binding to platelets. The settings on record: [3H]2-MeS-ADP binding to apyrase-washed human platelets. In outline:
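Apyrase-washed human platelets (1×10^8 per well) were preincubated 5 min with serial compound dilutions in Hepes-Tyrode's/0.1% BSA/0.6% DMSO, then incubated 15 min at room temperature with 1 nM [3H]2-MeS-ADP. Filter-bound radioactivity gave specific binding (nonspecific: 10 μM 2-MeS-ADP), and IC50s came from non-linear regression.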

The test system of test [1] is human platelet-rich plasma (PRP). The test is described as follows: PRP assay: inhibition of ADP-mediated platelet aggregation in vitro. The settings on record: Homo sapiens, Platelet, ADP-induced aggregation. It counts as cell-based. The method, then: The effect of testing the compound according to the invention on ADP-induced human platelet aggregation was assessed in a 96-well microtiter assay (see generally the procedures in Jantzen, H. M. et al. (1999) Thromb. Hemost. 81:111-117) or standard cuvette light transmittance aggregometry using either human platelet-rich plasma (PRP) or human washed platelets.
For preparation of human platelet-rich plasma for aggregation assays, human venous blood was collected from healthy, drug-free volunteers into 0.38% sodium citrate (0.013 M, pH 7.0 final). Platelet-rich plasma (PRP) is prepared by centrifugation of whole blood at 160×g for 20 minutes at room temperature. The PRP layer is removed, transferred to a new tube, and the platelet count is adjusted, if necessary, to achieve a platelet concentration of ˜3×10^8 platelets/ml using platelet-poor plasma (PPP). PPP is prepared by centrifugation of the remaining blood sample (after removal of PRP) for 20 minutes at 800×g. This preparation of PRP can subsequently be used for aggregation assays in either a 96-well plate or standard cuvette aggregometry.
For cuvette light transmittance aggregation assays, serial dilutions (1:3) of test compounds were prepared in 100% DMSO in a 96 well V-bottom plate (final DMSO concentration in the cuvette was 0.6%). The test compound (3 μl of serial dilutions in DMSO) was preincubated with PRP for 30-45 seconds prior to initiation of aggregation reactions, which were performed in a ChronoLog aggregometer by addition of agonist (5 or 10 μM ADP) to 490 μL of PRP at 37° C. In some cases, light transmittance aggregometry was performed using 490 μL of washed platelets (prepared as described above) at 37° C., and aggregation was initiated by addition of 5 μM ADP and 0.5 mg/ml human fibrinogen (American Diagnostics, Inc., Greenwich, Conn.). The aggregation reaction is recorded for ˜5 min, and maximum extent of aggregation is determined by the difference in extent of aggregation at baseline, compared to the maximum aggregation that occurs during the five minute period of the assay. Inhibition of aggregation was calculated as the maximum aggregation observed in the presence of inhibitor, compared to that in the absence of inhibitor. IC50s were derived by non-linear regression analysis using the Prism software (GraphPad, San Diego, Calif.).
Inhibition of ADP-dependent aggregation was also determined in 96-well flat-bottom microtiter plates using a microtiter plate shaker and plate reader similar to the procedure described by Frantantoni et al., Am. J. Clin. Pathol. 94, 613 (1990). All steps are performed at room temperature. For 96-well plate aggregation using platelet-rich plasma (PRP), the total reaction volume of 0.2 ml/well includes 180 μl of PRP (˜3×10^8 platelets/ml, see above), 6 μl of either serial dilution of test compounds in 20% DMSO or buffer (for control wells), and 10 μl of 20×ADP agonist solution (100 μM). The OD of the samples is then determined at 450 nm using a microtiter plate reader (Softmax, Molecular Devices, Menlo Park, Calif.) resulting in the 0 minute reading. The plates are then agitated for 5 min on a microtiter plate shaker and the 5 minute reading is obtained in the plate reader. Aggregation is calculated from the decrease of OD at 450 nm at t=5 minutes compared to t=0 minutes and is expressed as % of the decrease in the ADP control samples after correcting for changes in the unaggregated control samples. IC50s were derived by non-linear regression analysis.

T1 sequence (Q9H244 whole entry): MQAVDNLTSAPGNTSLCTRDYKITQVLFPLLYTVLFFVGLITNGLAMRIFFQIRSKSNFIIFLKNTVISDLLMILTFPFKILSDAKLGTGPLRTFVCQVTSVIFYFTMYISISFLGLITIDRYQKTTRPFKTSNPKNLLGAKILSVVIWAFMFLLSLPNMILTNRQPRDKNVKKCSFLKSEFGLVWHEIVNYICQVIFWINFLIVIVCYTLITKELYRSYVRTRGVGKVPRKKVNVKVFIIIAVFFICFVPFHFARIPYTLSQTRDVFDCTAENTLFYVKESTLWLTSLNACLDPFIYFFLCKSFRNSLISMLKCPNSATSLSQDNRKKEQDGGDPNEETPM

Consider `CNc1cc2ccn(-c3ccc(C(=O)NC(c4nnn[nH]4)c4ccc(Cl)s4)cc3)c(=O)c2cc1F` (centres unmarked) [Compound 91, N-((5-chlorothiophen-2-yl)(1H-tetrazol-5-yl)methyl)-4-(7-fluoro-6-(methylamino)-1-oxoisoquinolin-2(1H)-yl)benzamide], for which the values for the IC50 (at P2Y12 receptor; in test [1]) were under 50 nM and 10000 to 30000 nM, respectively.

On to `CNc1cc2c(cc1F)C(=O)N(c1ccc(C(=O)NC(C(=O)O)c3ccc(Cl)s3)cc1)CO2` (centres unmarked) [Compound 56, 2-(5-chlorothiophen-2-yl)-2-(4-(6-fluoro-7-(methylamino)-4-oxo-2H-benzo[e][1,3]oxazin-3(4H)-yl)benzamido)acetic acid], for which the figures for the IC50 (at P2Y12 receptor; in test [1]) were under 50 nM and 10000 to 30000 nM, respectively.

For `CNc1cc2c(cc1F)C(=O)N(c1ccc(CNC(CC(=O)O)c3ccc(Cl)s3)cc1)CO2` (centres unmarked) [Compound 106, 3-(5-chlorothiophen-2-yl)-3-(4-(6-fluoro-7-(methylamino)-4-oxo-2H-benzo[e][1,3]oxazin-3(4H)-yl)benzylamino)propanoic acid], the IC50 (in general, the concentration that gives 50% inhibition) is 50 to 500 nM at P2Y12 receptor and over 30000 nM in test [1].

Consider `CNc1cc2[nH]c(=O)n(-c3ccc(C(=O)N[C@@H](c4noc(=O)[nH]4)c4ccc(Cl)s4)cc3)c(=O)c2cc1F` [Compound 45, (S)-N-((5-chlorothiophen-2-yl)(5-oxo-4,5-dihydro-1,2,4-oxadiazol-3-yl)methyl)-4-(6-fluoro-7-(methylamino)-2,4-dioxo-1,2-dihydroquinazolin-3(4H)-yl)benzamide], for which the IC50 on P2Y12 receptor was under 50 nM; in test [1], under 10000 nM.

For `CNc1cc2[nH]c(=O)n(-c3ccc(C(=O)NC(C(N)=O)c4ccc(Cl)s4)cc3)c(=O)c2cc1F` (centres unmarked) [Compound 47, N-(2-amino-1-(5-chlorothiophen-2-yl)-2-oxoethyl)-4-(6-fluoro-7-(methylamino)-2,4-dioxo-1,2-dihydroquinazolin-3(4H)-yl)benzamide], the IC50 is 50 to 500 nM at P2Y12 receptor and under 10000 nM in test [1].

With `CNc1cc2c(cc1F)C(=O)N(c1ccc(C(=O)NC(c3nnn(C)n3)c3ccc(Cl)s3)cc1)CO2` (centres unmarked) [Compound 74, N-((5-chlorothiophen-2-yl)(2-methyl-2H-tetrazol-5-yl)methyl)-4-(6-fluoro-7-(methylamino)-4-oxo-2H-benzo[e][1,3]oxazin-3(4H)-yl)benzamide], the IC50 on P2Y12 receptor was 50 to 500 nM; in test [1], over 30000 nM.

Regarding `O=C(NCc1ccc(Cl)s1)c1ccc(-n2c(=O)[nH]c3cc(NCc4ccc(F)cc4)ccc3c2=O)cc1` [Compound 1, N-((5-chlorothiophen-2-yl)methyl)-4-(7-(4-fluorobenzylamino)-2,4-dioxo-1,2-dihydroquinazolin-3(4H)-yl)benzamide], the IC50 on P2Y12 receptor is 50 to 500 nM; in test [1], over 30000 nM.

In the case of `CNc1cc2c(=O)n(-c3ccc(C(=O)NC(c4noc(=O)[nH]4)c4ccc(Cl)s4)cc3)c(=O)[nH]c2cc1F` (centres unmarked) [Compound 50, N-((5-chlorothiophen-2-yl)(5-oxo-4,5-dihydro-1,2,4-oxadiazol-3-yl)methyl)-4-(7-fluoro-6-(methylamino)-2,4-dioxo-1,2-dihydroquinazolin-3(4H)-yl)benzamide], the IC50 is 50 to 500 nM at P2Y12 receptor and over 30000 nM in test [1].

Take `CNc1cc2[nH]c(=O)n(-c3ccc(C(=O)NC(C(=O)OCCN4CCOCC4)c4ccc(Cl)s4)cc3)c(=O)c2cc1F` (centres unmarked) [Compound 35, 2-morpholinoethyl 2-(5-chlorothiophen-2-yl)-2-(4-(6-fluoro-7-(methylamino)-2,4-dioxo-1,2-dihydroquinazolin-3(4H)-yl)benzamido)acetate]: the IC50 was 50 to 500 nM at P2Y12 receptor and 10000 to 30000 nM in test [1].

On to `CNc1cc2c(cc1F)C(=O)N(c1ccc(C(=O)NC(c3nnn[nH]3)c3ccc(Cl)s3)cc1)CO2` (centres unmarked) [Compound 54, N-((5-chlorothiophen-2-yl)(1H-tetrazol-5-yl)methyl)-4-(6-fluoro-7-(methylamino)-4-oxo-2H-benzo[e][1,3]oxazin-3(4H)-yl)benzamide], for which the results for the IC50 (at P2Y12 receptor; in test [1]) were under 50 nM and 10000 to 30000 nM, respectively.

In the case of `CNc1cc2c(cc1F)C(=O)N(c1ccc(C(=O)NC(c3noc(=O)[nH]3)c3ccc(Cl)s3)cc1)CO2` (centres unmarked) [Compound 71, N-((5-chlorothiophen-2-yl)(5-oxo-4,5-dihydro-1,2,4-oxadiazol-3-yl)methyl)-4-(6-fluoro-7-(methylamino)-4-oxo-2H-benzo[e][1,3]oxazin-3(4H)-yl)benzamide], the figures for the IC50 (on P2Y12 receptor; in test [1]) were under 50 nM and 10000 to 30000 nM, respectively.

Regarding `CNc1cc2ccn(-c3ccc(C(=O)NC(C(=O)O)c4ccc(Cl)s4)cc3)c(=O)c2cc1F` (centres unmarked) [Compound 90, 2-(5-chlorothiophen-2-yl)-2-(4-(7-fluoro-6-(methylamino)-1-oxoisoquinolin-2(1H)-yl)benzamido)acetic acid], the IC50 on P2Y12 receptor was under 50 nM; in test [1], 10000 to 30000 nM.

As for `CNc1cc2[nH]c(=O)n(-c3ccc(C(=O)NC(C(=O)O)c4ccc(Cl)s4)cc3)c(=O)c2cc1F` (centres unmarked) [Compound 13, 2-(5-chlorothiophen-2-yl)-2-(4-(6-fluoro-7-(methylamino)-2,4-dioxo-1,2-dihydroquinazolin-3(4H)-yl)benzamido)acetic acid], the results for the IC50 (at P2Y12 receptor; in test [1]) were 50 to 500 nM and under 10000 nM, respectively.

Regarding `CNc1cc2ccn(-c3ccc(CNC(C(=O)O)c4ccc(Cl)s4)cc3)c(=O)c2cc1F` (centres unmarked) [Compound 115, 2-(5-chlorothiophen-2-yl)-2-(4-(7-fluoro-6-(methylamino)-1-oxoisoquinolin-2(1H)-yl)benzylamino)acetic acid], the IC50 on P2Y12 receptor was 50 to 500 nM; in test [1] it was over 30000 nM.

On to `CNc1cc2[nH]c(=O)n(-c3ccc(C(=O)NC(c4noc(=O)[nH]4)c4ccc(Cl)s4)cc3OC)c(=O)c2cc1F` (centres unmarked) [Compound 53, N-((5-chlorothiophen-2-yl)(5-oxo-4,5-dihydro-1,2,4-oxadiazol-3-yl)methyl)-4-(6-fluoro-7-(methylamino)-2,4-dioxo-1,2-dihydroquinazolin-3(4H)-yl)-3-methoxybenzamide], for which the figures for the IC50 (on P2Y12 receptor; in test [1]) were 50 to 500 nM and over 30000 nM, respectively.

Regarding `CNc1cc2[nH]c(=O)n(-c3ccc(C(=O)NC(C(=O)O)c4ccc(C)s4)cc3)c(=O)c2cc1F` (centres unmarked) [Compound 19, 2-(4-(6-fluoro-7-(methylamino)-2,4-dioxo-1,2-dihydroquinazolin-3(4H)-yl)benzamido)-2-(5-methylthiophen-2-yl)acetic acid], the IC50 on P2Y12 receptor was 50 to 500 nM; in test [1], under 10000 nM.

Consider `O=C(NC(C(=O)O)c1cccs1)c1ccc(-n2c(=O)[nH]c3cc(NCc4ccc(F)cc4)ccc3c2=O)cc1` (centres unmarked) [Compound 2, 2-(4-(7-(4-fluorobenzylamino)-2,4-dioxo-1,2-dihydroquinazolin-3(4H)-yl)benzamido)-2-(thiophen-2-yl)acetic acid], for which the IC50 at P2Y12 receptor was 50 to 500 nM; in test [1], over 30000 nM.

For `CNc1cc2[nH]c(=O)n(-c3ccc(C(=O)NC(CC(=O)O)c4ccc(Cl)s4)cc3)c(=O)c2cc1F` (centres unmarked) [Compound 27, 3-(5-chlorothiophen-2-yl)-3-(4-(6-fluoro-7-(methylamino)-2,4-dioxo-1,2-dihydroquinazolin-3(4H)-yl)benzamido)propanoic acid], the IC50 was 50 to 500 nM on P2Y12 receptor and over 30000 nM in test [1].

`CNc1cc2[nH]c(=O)n(-c3ccc(C(=O)NC(C(=O)O)c4ccc(Cl)s4)c(F)c3)c(=O)c2cc1F` (centres unmarked) [Compound 44, 2-(5-chlorothiophen-2-yl)-2-(2-fluoro-4-(6-fluoro-7-(methylamino)-2,4-dioxo-1,2-dihydroquinazolin-3(4H)-yl)benzamido)acetic acid]: the IC50 at P2Y12 receptor lay in the range of 50 to 500 nM; in test [1] it was 10000 to 30000 nM.
